From ChEMBL document CHEMBL1148994, “On the active principles of the spurge family, X. Skin irritants, cocarcinogens, and cryptic cocarcinogens from the latex of the manchineel tree” (J Nat Prod, 1984)

Legend:
[1] = organism: Mus musculus; assay: Toxicity in NMRI mouse assessed as drug level required for irritant activity in 50% animal assessed per ear; format: organism-based; settings: in vivo
[2] = Toxicity in NMRI mouse assessed as survival rate at 3.1 ug for 48 weeks measured after 24 weeks; format: organism-based; settings: in vivo, read-out: Activity
[3] = Toxicity in NMRI mouse back skin assessed as survival rate at 11.7 ug for 48 weeks measured after 24 weeks; format: organism-based, Zone of skin; settings: in vivo, topical or ocular, read-out: Activity
[4] = organism: Mus musculus; assay: Carcinogenic activity in NMRI mouse assessed as number of tumors per mouse at 12.2 ug for 34 weeks measured after 12 weeks; format: ADME, organism-based; settings: in vivo, 2016 h
[5] = Toxicity in NMRI mouse assessed as survival rate at 12.2 ug for 34 weeks measured after 24 weeks; format: organism-based; settings: in vivo, read-out: Activity
[6] = organism: Mus musculus; assay: Carcinogenic activity in NMRI mouse assessed as number of tumor bearing mouse at 12.2 ug for 34 weeks measured after 12 weeks; format: ADME, organism-based; settings: in vivo, 2016 h

| SMILES | Activity [1] | survival at 4032 h [2] | survival at 4032 h [3] | Activity [4] | survival at 4032 h [5] | Activity [6] |
| --- | --- | --- | --- | --- | --- | --- |
| CCCCCCCCCCCCCC(=O)O[C@@H]1[C@@H](C)[C@@]2(O)[C@@H](C=C(CO)C[C@]3(O)C(=O)C(C)=C[C@@H]23)[C@@H]2C(C)(C)[C@]12OC(C)=O [TETRADECANOYL PHORBOL ACETATE] | 0.01 µg | 96% |  |  |  |  |
| C=C(C)[C@]12C[C@@H](C)[C@@]34O[C@](/C=C/C=C/CCCCCCCCC)(O[C@@H]1[C@@H]3[C@@H]1O[C@]1(CO)[C@@H](O)[C@]1(O)C(=O)C(C)=C[C@H]14)O2 |  | 96% | 96% |  |  |  |
| CCCCCCCCC/C=C/C=C/C=C/C(=O)O[C@@]12C[C@@H](C)[C@@]3(O)[C@H]([C@@H]1C2(C)C)[C@@H]1O[C@]1(CO)[C@@H](O)[C@]1(O)C(=O)C(C)=C[C@H]13 [MANCINELLIN] | 0.15 µg |  |  | Not Active | 100% | Not Active |
